How the values were obtained:
[1] = biological target: D2 (dopamine) receptor (Homo sapiens, UniProt P14416); assay: affinity for the D2 (dopamine) receptor in in vitro models; assay type: binding
[2] = tested on: Male Wistar rats; assay: Chronic Mild Stress Model of Depression (CMS), sucrose intake
Source text: CMS uses mild stressors, such as food and water deprivation, small temperature changes, changes of cage mates, etc. Over a period of weeks of exposure to the mild stressors, the animals gradually reduce their consumption of a highly preferred sucrose solution which persists (in untreated animals) for several weeks following the cessation of stress.
Male Wistar rats were brought into the laboratory two months before the start of the experiment at which time they weighed aprroximately 300 grams. Except as described below, the animals were singly housed, with food an eater freely available, and maintained on a 12 hour light/dark cycle (lights on at 8 AM) at a temperature of 22±° C.
The animals were first trained to consume a 1% sucrose solution; training consisted of eight 1 hour baseline tests in which sucrose was presented, in the home cage, following 14 hours food and water deprivation; intake was measured by weighing pre-weighed bottles containing the sucrose solution at the end of the test. Subsequently, sucrose consumption was monitored, under similar conditions, at weekly intervals throughout the whole experiment.
On the basis of their sucrose intakes in the final baseline test, the animals were divided into two matched groups. One group of animals was subjected to a chronic mild stress procedure for a period of 9 consecutive weeks. Each week of stress regime consisted of: two periods of food or water deprivation (12 and 14 hour), two periods of 45 degree cage tilt (12 and 14 h), two periods of intermittent overnight illumination (lights on and off every 2 hours), two 14 hour periods of soled cage (200 ml water in sawdust bedding), two 14 hour periods of paired housing, two 14 hour periods of low intensity stroboscopic illumination (150 flashes/min). Stressors were applied continuously throughout the day and night, and scheduled randomly. […] They were deprived of food and water for the 14 hours preceding each sucrose test, but otherwise food and water were freely available in the home cage. […] All drug injections were in a volume of 1 ml/kg body weight. Drugs were administered at 10 AM and sucrose tests were carried out 24 hours following the last drug treatment. After five weeks, the treatments were terminated and after one week of withdrawal a final sucrose test was carried out. Stress was continued throughout the period of treatment and withdrawal.
Results were analyzed by multiple analysis of variance, followed by Fisher's LSD test for post hoc comparisons of means.

[3] = tested on: cholinergic M1/M2 receptors; assay: affinity for the cholinergic M1/M2 receptors; assay type: binding
Source text: It is orally active, non-toxic at therapeutic doses and potent. It is also capable of being sealed-up for commercial synthesis. Additionally, neurochemical studies indicate that there is a serotonin/dopamine interaction following chronic administration of this compound as described in Life Sciences 56(25): 2209-2222 (1995), incorporated herein by reference. The combination of the foregoing characteristics produces a unique compound for treating patients having either Depressive Disorders of Bipolar Disorders.

[4] = biological target: D1 (dopamine) receptor (Homo sapiens, UniProt P21728); assay: affinity for the D1 (dopamine) receptor in in vitro models; assay type: binding
D1 (dopamine) receptor, sequence (P21728 whole entry): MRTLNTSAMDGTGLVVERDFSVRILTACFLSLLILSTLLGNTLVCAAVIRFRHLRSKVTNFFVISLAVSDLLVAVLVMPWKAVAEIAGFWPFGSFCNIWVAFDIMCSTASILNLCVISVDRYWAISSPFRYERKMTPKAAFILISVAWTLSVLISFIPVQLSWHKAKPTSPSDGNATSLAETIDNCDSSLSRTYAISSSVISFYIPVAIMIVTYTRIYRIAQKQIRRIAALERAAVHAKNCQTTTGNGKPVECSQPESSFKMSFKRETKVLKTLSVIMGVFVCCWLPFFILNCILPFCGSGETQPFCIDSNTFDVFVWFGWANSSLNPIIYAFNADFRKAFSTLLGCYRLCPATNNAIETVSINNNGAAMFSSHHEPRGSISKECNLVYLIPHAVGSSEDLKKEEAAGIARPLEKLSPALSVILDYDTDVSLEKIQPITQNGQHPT

[5] = tested on: α-1 receptor; assay: affinity for the α-1 receptor in in vitro models; assay type: binding

D2 (dopamine) receptor, sequence (P14416 whole entry): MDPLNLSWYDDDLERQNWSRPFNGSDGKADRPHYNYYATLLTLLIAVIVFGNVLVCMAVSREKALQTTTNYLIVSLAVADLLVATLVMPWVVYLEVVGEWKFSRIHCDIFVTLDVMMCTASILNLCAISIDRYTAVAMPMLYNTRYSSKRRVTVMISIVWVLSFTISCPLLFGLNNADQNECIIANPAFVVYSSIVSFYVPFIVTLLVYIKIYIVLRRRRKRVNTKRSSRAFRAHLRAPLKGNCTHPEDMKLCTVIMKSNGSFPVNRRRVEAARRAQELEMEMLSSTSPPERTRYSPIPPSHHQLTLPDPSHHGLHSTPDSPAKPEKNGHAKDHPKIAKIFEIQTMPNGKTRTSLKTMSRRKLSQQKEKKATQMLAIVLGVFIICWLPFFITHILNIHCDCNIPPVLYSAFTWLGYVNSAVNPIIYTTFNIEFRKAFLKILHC

Row | affinity for the D2 (dopamine) receptor [1] | affinity for the cholinergic M1/M2 receptors [3] | affinity for the D1 (dopamine) receptor [4] | affinity for the α-1 receptor [5] | Compound | effect on sucrose intake in control animals ([2]; control (unstressed) rats, 0.002, 0.02 and 0.2 mg/kg orally daily, five weeks) | sucrose intakes one week after withdrawal from the treatment ([2]; control and stressed rats, 0.002, 0.02 and 0.2 mg/kg orally, one week after withdrawal) | weeks of treatment after which sucrose intake was significantly increased from initial scores (Week 0) ([2]; stressed rats, 0.02 mg/kg orally daily) | amount of sucrose solution drunk at the end of treatment period (Week 5) ([2]; stressed rats, 0.02 mg/kg orally daily, Week 5) | weeks of treatment after which sucrose intake was significantly increased from initial scores (Week 0) ([2]; stressed rats, 0.2 mg/kg orally daily) | amount of sucrose solution drunk at the end of treatment period (Week 5) ([2]; stressed rats, 0.2 mg/kg orally daily, Week 5) | effect on sucrose intake in stressed animals ([2]; stressed rats, 0.002, 0.02 and 0.2 mg/kg orally daily, five weeks (overall Treatment effect)) | effect on sucrose intake throughout the whole treatment period ([2]; stressed rats, lowest dose 0.002 mg/kg orally daily, five weeks) | effect on sucrose intake in control animals ([2]; control (unstressed) rats, 10 mg/kg ip daily, five weeks) | weeks of treatment after which sucrose intake was significantly increased from Week 0 scores ([2]; stressed rats, 10 mg/kg ip daily) | sucrose intake after five weeks of treatment compared with controls ([2]; stressed rats, 10 mg/kg ip daily, Week 5) | effect on sucrose intake in stressed animals ([2]; stressed rats, 10 mg/kg ip daily, five weeks) | sucrose intake one week after withdrawal from the drug ([2]; stressed rats, 10 mg/kg ip, one week after withdrawal)
1 | greater than 100 nM | little affinity | greater than 100 nM | greater than 100 nM | COc1cccc(C(O)C2CCN(CCc3ccc(F)cc3)CC2)c1OC (stereo not drawn) [THE COMPOUND, (+)-α-(2,3-dimethoxyphenyl)-1-[2-(4-fluorophenyl)ethyl]-4-piperidinemethanol] | no significant effect | not significantly changed | two | comparable to that of vehicle-treated controls and significantly higher than that of vehicle-treated stressed animals | three | comparable to that of vehicle-treated controls and significantly higher than that of vehicle-treated stressed animals | gradually reversed the CMS-induced deficit in sucrose intake | no significant effect |  |  |  |  | 
2 |  |  |  |  | CN(C)CCCN1c2ccccc2CCc2ccccc21 [Imipramine, reference compound] |  |  |  |  |  |  |  |  | no significant effect | four | no significant differences between drug-treated stressed animals and drug- and saline-treated controls | gradual increase of sucrose intake | maintained at similar level

From US6380216B1, “Use of (+)-α-(2,3-dimethoxyphenyl)-1-[2-(4-fluorophenyl) ethyl]-4-piperidinemethanol in treating depressive disorders and bipolar disorders” (Aventis Pharmaceuticals Inc., priority 1996, dated 2002)
